Earlier results as cited in PMC5073354, “Direct and indirect mechanisms of KLK4 inhibition revealed by structure and dynamics” (Scientific Reports, 2016).

Key:
KLK4 [1] = system: KLK4
Source text: Since the trypsin-SFTI-1 and matriptase-SFTI-1 protease/inhibitor complexes have been characterized by X-ray crystallography, a structural context is available to dissect relative potencies. […] To examine the interaction between KLK4 and inhibitor we determined the X-ray crystal structure of a KLK4-SFTI-1 complex to 1.0 Å resolution. The inhibitor structure is well-resolved except for missing density in the backbone of Pro13 and the side chain of Asp14. The contact β-sheet of SFTI-1 has multiple interactions with the KLK4 active site, including the P1 Lys5 inserting into the S1 pocket of KLK4 (Fig. 1B). || When comparing the structure of SFTI-1 in the context of trypsin, matriptase and KLK4, differences in the interface correlate to the potency of inhibition. […] Comparison of the structures provides arguments to support this lowered inhibition. SFTI-1 has less buried surface area and fewer interactions with KLK4 than with either trypsin or matriptase (Table S1). SFTI-1 behaves as a Laskowski inhibitor, interacting with its targets following the classi ... || (+ 1 further places)

matriptase = system: matriptase
Source text: (§1) Since the trypsin-SFTI-1 and matriptase-SFTI-1 protease/inhibitor complexes have been characterized by X-ray crystallography, a structural context is available to dissect relative potencies.

trypsin = system: trypsin
Source text: as §1

KLK4 [2] = conditions: ion binding to residues more than 20 Å from the active site
Source text: To gain more insight into this mode of inhibition, we crystallized KLK4 under identical conditions but in the absence of PABA inhibitor.

Factor VIIa = conditions: FVIIa not bound to tissue factor
Source text: Kallikreins are proteases that perform catalysis in organs with high zinc concentrations. The KLK4 inactivation by nickel described in this work is also proposed to apply to zinc binding to the same […]/[…] site[23]. A molecular understanding of zinc-mediated inhibition of members of the kallikrein family is emerging with three types of inhibition seen[41]. […] This is proposed to inhibit activity by […][42]. Second, zinc binding to residues in loop IV (also known ...

KLK4 [3] = conditions: library of tetrapeptide pNA substrates with invariant P1 Arg
Source text: We previously tested the amidolytic activity of KLK4 against a focused library of synthetic tetrapeptide substrates with an invariant P1 Arg[13]. […] To investigate the structural basis for increased potency, we solved the crystal struct ...

## 1GRCTKSIPPICFPD14 (bicyclic or more) [SFTI-1, sunflower trypsin inhibitor-1, 14 amino acid bicyclic peptide; backbone cyclization coupled with an intramolecular disulfide linkage]
KLK4 [1]; discrepancy in reported SFTI-1 inhibition constants (ref 12, 26, 27)
  rank of potency, KLK4 versus trypsin and matriptase (in words): KLK4 is thought to be the least potently inhibited
KLK4 [1]; proteolytic activity of KLK4
  inhibition of KLK4 (in words): potently inhibits KLK4 proteolytic activity
matriptase
  inhibition of matriptase (in words): inhibit KLK4 in addition to trypsin and matriptase
trypsin
  inhibition of trypsin (in words): inhibit KLK4 in addition to trypsin and matriptase

## [Ni+2] [Ni^2+, nickel]
KLK4 [2]
  inhibition of KLK4 by metal (in words): KLK4 can be inhibited

## [Ca+2] [calcium]
Factor VIIa; zinc-inhibited
  reversal of zinc inhibition of FVIIa (in words): can reverse this inhibition with calcium

## [Zn+2] [zinc]
Factor VIIa
  inhibition of FVIIa by zinc (in words): is inhibited by zinc

## FVQR-p-nitroanilide [FVQR-p-nitroanilide (pNA)]
KLK4 [3]
  amidolytic activity of KLK4 for substrate (in words): highest activity
